Earlier results on 4 compounds are cited in US9402788B2, “Manufacture of multiple minicapsules” (Sigmoid Pharma Ltd., priority 2007, dated 2016).

The structures appear in SMILES notation. Structures can show the parent of a compound that is named as a salt.

For series [1] the following is noted: HME film, clotrimazole 10% w/w.
For series [2] the following is noted: after extrusion with EC/HM polymers; HPLC.

Take `Clc1ccccc1C(c1ccccc1)(c1ccccc1)n1ccnc1` [clotrimazole]: in series [1], the “duration of prolonged release” value is 10 h and the “duration of zero-order release” value is 6 h.

For the compound `CC(C)Cc1ccc(C(C)C(=O)O)cc1` (centres unmarked) [ibuprofen], the “ibuprofen amount remained after extrusion” value in series [2] is recorded as 98.9%. On to `CC(C)NCC(O)COc1cccc2ccccc12` (centres unmarked) [propranolol HCl], for which the aqueous solubility is 50 mg/mL. As for `Cn1c(=O)c2[nH]cnc2n(C)c1=O.O` [theophylline monohydrate], the aqueous solubility was 8.33 mg/mL.

What is called aqueous solubility is the concentration that dissolves in the medium under given conditions.
